Measured values: US20030114362A1, “Penta-or tetrapeptide binding to somatostatin receptors and the use of the same” (Novaspin Biotech GmbH, priority 2001, published 2003)
Starred links: 1 amine or outer side, 2 acyl side, 3 side chain; linkers in the order of their positions; H or OH if unused. Non-standard residues stand in square brackets, D forms with d. Residues, ends and D or L forms follow the SMILES beside them. ξ: configuration not given here. *: point of attachment. X3 = CC1(C)O[C@H]2O[C@H](C(=O)[*:2])[C@@H](N[*:1])[C@H]2O1; X1 = CC1(C)OC2[C@H](OC(C(O)C(=O)[*:2])[C@H]2N[*:1])O1; X2 = CC1(C)OC2[C@H](O[C@H](C(=O)[*:2])[C@H]2N[*:1])O1; Bip = N[C@@H](Cc1ccc(-c2ccccc2)cc1)C(=O)O; Trt = c1ccc(C(c2ccccc2)(c2ccccc2)*)cc1; Bta = N[C@@H](Cc1csc2ccccc12)C(=O)O; ξW = NC(Cc1c[nH]c2ccccc12)C(=O)O; Thr(3ξ) = CC(O)[C@H](N)C(=O)O; ξY = NC(Cc1ccc(O)cc1)C(=O)O; Nle = CCCC[C@H](N)C(=O)O; ξF = NC(Cc1ccccc1)C(=O)O; ξK = NCCCCC(N)C(=O)O; Bn = c1ccc(C*)cc1

What was measured:
[1] = test system: Substance P release from sensory nerve terminals; test: Release of Substance P in vitro from electrically stimulated rat tracheae (RIA); details: for Substance P release, stim. / inhibition of Substance P release / Substance P release, post stim. / Substance P release, pre stim.: 500 nmol; for Substance P release, stim.: electrical field stimulation 40 V, 0.1 ms, 10 Hz, 120 s; for Substance P release, stim. / Substance P release, post stim. / Substance P release, pre stim.: released amount of peptide per tissue weight; for inhibition of Substance P release: electrically evoked release; for Substance P release, post stim.: poststimulated fraction; for Substance P release, pre stim.: prestimulated fraction; for Substance P release evoked by electrical stimulation of sensory nerve terminals (in words): compared with TT-232
Procedure: Effect of TG, SGA, TR, and TT-232 on the Release of Substance P in vitro Methods:
After exsanguination the tracheae of 2-2 female Wistar rats were removed and perfused (1 ml min^−1) in an organ bath (1.8 ml) at 37° C. for 60 min with oxygenated (95% O2 and 5% CO2) Krebs solution of the following composition (in mM): NaCl 119, NaHCO3 25, KH2PO4 1.2, MgSO4 1.5, KCl 4.7, CaCl2 2.5, glucose 11. After stopping the flow the solution was changed 3 times for 8 min (prestimulated—stimulated—poststimulated). Electrical field stimulation (40 V, 0.1 ms, 10 Hz, 120 s) was performed to induce release of sensory neuropeptides from the tissue pieces in the presence or absence of SGTG, SGA, SGTH, or TT-232 (500-500 nM). The fractions were collected in ice-cold tubes and the wet weight of the tracheae were measured. Concentration of SP was determined by specific radioimmunoassay (RIA) methods developed in our laboratory (Németh, J., Oroszi, G., Thán, M., Helyes, Zs., Pintér, E., Farkas, B. and Szolcsányi, J.: Substance P radioimmunoassay for quantitative characterization of sensory neurotransmitter release. Neurobiology, 7, 437-444, 1999) and was expressed as the released amount of peptide per tissue weight.

[2] = test system: A431 (an epidermoid cancer); details: A431, MB and MTT assays
Procedure: (§3) Each compound was tested under 4 conditions: 6 h (to exclude necrosis) and 48 h to see inhibition of proliferation and apoptosis.

[3] = test system: Panc-1 (a well differentiated pancreatic adenocarcinoma); details: Panc-1, MB and MTT assays
Procedure: as §3

[4] = test system: A431 and Panc-1; details: number of cell deaths after 6 h of incubation
Procedure: The Compounds shown below were tested on two cell-lines, A431 (A. T. C. C. reference No. CRL-1555, c.f. American Type Culture Collection, http://phage.atcc.org/cgi-bin/searchengine/longview.cgi?view=ce,663682,CRL-1555&text=a-431, 2001, pp. http://phage.atcc.org/cgi-bin/searchengine/longview.cgi?view-ce,663682,CRL-661555&text=a-663431; http://phage.atcc.org/cgi-bin/searchengine/longview.cgi?view=ce,663682,CRL-661555&text=a-663431) (an epidermoid cancer) and Panc-1 (A.T.C.C. reference No. CRL-1469, c.f. American Type Culture Collection, http://phage.atcc.org/cgi-bin/searchengine/longview.egi?view=ce,609764,CRL-1469&text=panc-1) (a well differentiated pancreatic adenocarcinoma), both of human origin, using the MTT (Carmichael J et al. Cancer Res. 47(4): pp. 936-42, 1987.) and MB (Oliver M H, Harrison N K, Bishop J E, Cole P J, Laurent G J; J Cell Sci 1989 March;92 ( Pt 3):513-8) assays. [drawing 25]
Each compound was tested under […]: 6 h (to exclude necrosis) and 48 h to see inhibition of proliferation and apoptosis.

[5] = test system: multi-drug resistant cell line Klon 2 (10×80); test: XTT/PMS cytotoxicity assay, multidrug resistant hepatoma cells; assay type: cell-based, rat; details: 72 hrs incubation
Excerpt: (§1) Rat hepatoma cells were cultivated in a F 12 medium (GibcoBRL), to which 5% of foetal calf serum had been added, in a atmosphere saturated with humidity (>95%) and having a CO2 content of 8% in air. The cell line named “Klon 2” was isolated by Venetianer et al. (Cytogentc.Cell.Genet 28:280-283, 1980). The cell line 2 (10×80)T1 is a sub-clone of Klon 2 having a moderate multi-drug resistance 8 (Pirity, Hever-Szabo and Venetianer, Cytotechnology 19:207-214, 1996). The degree of resistance of cell line 2 (10×80) was determined by a Niagara blue exclusion test, the cells being exposed to different concentrations of the following cytostatic agents for 72 hrs.
(§2) The XTT/PMS Assay (Scuderio et al., Cancer Res. 48:4827-4833, 1988; Roehm et al., J.Immun.Methods 142:257-265, 1991) was utilised to determine the cytotoxicity of the compounds. For this purpose, the viability of the sensitive cell line Klon 2 was tested in comparison with that of the multi-drug resistant cell line Klon 2 (10×80). An identical number of cells was applied to a 96 cell culture plate. […] The cell viability was determined by triple determination for each concentration by means of the XTT/PMS dye test (Scuderio et al., Cancer Res. 48:4827-4833, 1988; Roehm et al., J.Immun.Methods 142:257-265,1991). […]

[6] = test system: sensitive cell line Klon 2; test: XTT/PMS cytotoxicity assay, drug sensitive hepatoma cells; assay type: cell-based, rat; details: Klon 2, XTT/PMS, 72 hrs incubation
Excerpt: as §1, §2

| Compound | IC50 [2] | IC50 [3] | Necrosis [4] | further results |
| --- | --- | --- | --- | --- |
| CC1(C)OC2[C@H](O[C@@H]3C(=O)N[C@@H](Cc4ccccc4)C(=O)N[C@@H](Cc4c[nH]c5ccccc45)C(=O)N[C@@H](CCCCN)C(=O)N[C@@H]23)O1 (stereo partly drawn) [SGA, cyclo[-Phe-Trp-Lys-Z1-]] | – | – | – | Substance P release, stim. [1]: 4.81; inhibition of Substance P release [1]: 28.4%; Substance P release, post stim. [1]: 2.07; Substance P release, pre stim. [1]: 1.81; Substance P release evoked by electrical stimulation of sensory nerve terminals (in words) [1]: inhibited |
| CCCC[C@@H]1NC(=O)[C@@H](Cc2c[nH]c3ccccc23)NC(=O)[C@H](Cc2ccc(O)cc2)NC(=O)[C@H]2O[C@@H]3OC(C)(C)O[C@@H]3[C@@H]2NC(=O)[C@H]([C@@H](C)OC(c2ccccc2)(c2ccccc2)c2ccccc2)NC1=O [SGnc 7, cyclo[-D-Trp-Nle-Thr(OTrt)-Z1-Tyr-]] (cyclo([Nle]T(Trt)[X3]Y[dW])) | 10 µM | 10 µM | none | – |
| C[C@@H](OC(c1ccccc1)(c1ccccc1)c1ccccc1)C1NC(=O)[C@H](CCCCN)NC(=O)[C@H](Cc2csc3ccccc23)NC(=O)[C@H](Cc2ccc(O)cc2)NC(=O)[C@H]2O[C@@H]3OC(C)(C)OC3[C@@H]2NC1=O (some centres unmarked) [SGnc 8] | 50 µM | 40 µM | some | – |
| C[C@@H](OC(c1ccccc1)(c1ccccc1)c1ccccc1)C1NC(=O)[C@H](CCCCN)NC(=O)[C@H](Cc2ccc3ccccc3c2)NC(=O)[C@H](Cc2ccc(O)cc2)NC(=O)[C@H]2O[C@@H]3OC(C)(C)OC3[C@@H]2NC1=O (some centres unmarked) [SGnc 10] | 55 µM | 40 µM | some | – |
| CC(OC(c1ccccc1)(c1ccccc1)c1ccccc1)[C@@H]1NC(=O)C(CCCCN)NC(=O)[C@@H](Cc2c[nH]c3ccccc23)NC(=O)C(Cc2ccccc2)NC(=O)C(O)C2O[C@@H]3OC(C)(C)OC3[C@@H]2NC1=O (stereo partly drawn) [SGnc 18, c[-D-Trp-Lys-Thr(OTrt)-Z2-Phe-]] (cyclo([Thr(3ξ)](Trt)[X1][ξF][dW][ξK])) | ~50 µM | ~50 µM | some | – |
| CC1(C)OC2[C@H](OC3C(O)C(=O)NC(Cc4ccccc4)C(=O)N[C@H](Cc4c[nH]c5ccccc45)C(=O)NC(CCCCN)C(=O)N[C@@H](Cc4ccc(-c5ccccc5)cc4)C(=O)N[C@H]32)O1 (stereo partly drawn) [SGnc 20, cyclo[-D-Trp-Lys-Thr(OTrt)-Z2-Phe-]] (cyclo([Bip][X1][ξF][dW][ξK])) | ~60 µM | ~60 µM | some | – |
| CC(OCc1ccccc1)[C@@H]1NC(=O)C(CCCCN)NC(=O)C(Cc2c[nH]c3ccccc23)NC(=O)C(Cc2ccc(O)cc2)NC(=O)[C@H]2O[C@@H]3OC(C)(C)OC3[C@@H]2NC1=O (stereo partly drawn) [SGnc 38, cyclo[-D-Trp-Lys-Thr(OBzl)-Z1-Tyr-]] (cyclo([Thr(3ξ)](Bn)[X2][ξY][ξW][ξK])) | ~50 µM | ~50 µM | some | – |
| CC(OC(c1ccccc1)(c1ccccc1)c1ccccc1)[C@@H]1NC(=O)C(CCCCN)NC(=O)[C@@H](Cc2csc3ccccc23)NC(=O)C(Cc2ccc(O)cc2)NC(=O)[C@H]2O[C@@H]3OC(C)(C)OC3[C@@H]2NC1=O (some centres unmarked) [SGnc 50] | ~38 µM | ~38 µM | none | – |
| CC1(C)OC2[C@H](O[C@@H]3C(=O)NC(Cc4ccc(O)cc4)C(=O)N[C@@H](Cc4csc5ccccc45)C(=O)NC(CCCCN)C(=O)N[C@@H](Cc4ccc(OCc5ccccc5)cc4)C(=O)N[C@@H]23)O1 (some centres unmarked) [SGnc 51] (cyclo([Bta][ξK]Y(Bn)[X2][ξY])) | 35 µM | 35 µM | almost none | – |
| c[-D-Trp-Lys-1-Nal-Z1-Phe-] [SGnc 15] | ~110 µM | ~110 µM | some | – |
| c[-D-Trp-Lys-Bpa-Z1-Phe-] [SGnc 14] | ~100 µM | ~100 µM | almost none | – |
| c[-D-Trp-Lys-Thr(OTrt)-Z1-Tyr-] | – | – | – | IC50 [5]: 25 µM; Substance P release, stim. [1]: 5.14; inhibition of Substance P release [1]: 19.3%; Substance P release, post stim. [1]: 2.31; Substance P release, pre stim. [1]: 1.76; Substance P release evoked by electrical stimulation of sensory nerve terminals (in words) [1]: inhibited; IC50 [6]: 31 µM |
| c[-Tyr-Trp-Lys-Thr-Z1-] | – | – | – | IC50 [5]: 47 µM; IC50 [6]: 75 µM |
